Data set [1] has as its system MDA-MB-231. The data set can be described thus: Growth inhibition of human MDA-MB-231 cells after 72 hrs by luminescence assay. In kind it is functional. The settings on record: MDA-MB-231, 72 h.
The test system of data set [2] is Mus musculus. The experiment in a line: Upregulation of TNFalpha mRNA level in human MDA-MB-231 cells expressing luciferase xenografted in po dosed mouse after 6 hrs by RT-PCR analysis. In kind it is functional, organism-based.
A short description of data set [3]: Metabolic stability in mouse liver microsomes assessed as compound remaining at 1 umol/L after 15 to 30 mins by LC/MS/MS analysis. In kind it is ADME, Microsome. The settings on record: read-out: Stability.
A short description of data set [4]: Metabolic stability in human liver microsomes assessed as compound remaining at 1 umol/L after 15 to 30 mins by LC/MS/MS analysis. In kind it is ADME, Microsome. Particulars: read-out: Stability.

This note sets out measurements from ChEMBL document CHEMBL2417358, “Design, stereoselective synthesis, and biological evaluation of novel tri-cyclic compounds as inhibitor of apoptosis proteins (IAP) antagonists” (Bioorg Med Chem, 2013).

Regarding `CN[C@@H](C)C(=O)N[C@H](C(=O)N1C[C@H]2CCCN2C[C@H]1C(=O)N[C@@H]1CCOc2ccccc21)C1CCCCC1`, in data set [1], the GI50 stood at 5.7 nM.
In the case of `CN[C@@H](C)C(=O)N[C@H](C(=O)N1C[C@H]2C[C@@H]3C[C@@H]3N2C[C@H]1C(=O)N[C@@H]1CCOc2ccccc21)C1CCCCC1`, the Activity entry in data set [2] is “Dose-dependent effect”. Moreover, the figures for the microsomal CLint at 1 µM in data set [3] and in data set [4] were 96 µL/min/mg and 72 µL/min/mg, respectively. Moreover, the GI50 in data set [1] turned out to be 7.8 nM.
On to `CN[C@@H](C)C(=O)N[C@H](C(=O)N1C[C@H]2C[C@H]3C[C@H]3N2C[C@H]1C(=O)N[C@@H]1CCOc2ccccc21)C1CCCCC1`, for which the microsomal CLint at 1 µM in data set [3] is 45 µL/min/mg; in data set [4], 39 µL/min/mg. This compound also gave a GI50 in data set [1] of 83 nM.
